Test results: patent US6656932B2, “Benzo thiadiazine matrix metalloproteinase inhibitors” (Warner-Lambert Company, priority 2001, dated 2003)
Structures can show the parent of a compound that is named as a salt. Where two headings read alike, the source gives them in different places.

Tests used:
Assay type in all cases: biochemical
[1] = molecular target: MMP-13CD (catalytic domain of collagenase 3) (Homo sapiens, UniProt P45452); assay: Thiopeptolide hydrolysis assay, MMP-13CD; details: thiopeptolide substrate, HEPES pH 7.0
Excerpt: (§1) The invention compounds of Formula I have been evaluated in standard assays for their ability to inhibit the catalytic activity of various MMP enzymes.
(§2) Thiopeptolide substrates show virtually no decomposition or hydrolysis at or below neutral pH in the absence of a matrix metalloproteinase enzyme.
(§3) Several representative compounds have been evaluated for their ability to inhibit various matrix metalloproteinase enzymes.

[2] = molecular target: MMP-3CD (catalytic domain of stromelysin-1) (Homo sapiens, UniProt P08254); assay: Thiopeptolide hydrolysis assay, MMP-3CD; details: thiopeptolide substrate, MES buffer pH 6.0
Chain of MMP-3CD (catalytic domain of stromelysin-1) (P08254 100-272 limits assumed): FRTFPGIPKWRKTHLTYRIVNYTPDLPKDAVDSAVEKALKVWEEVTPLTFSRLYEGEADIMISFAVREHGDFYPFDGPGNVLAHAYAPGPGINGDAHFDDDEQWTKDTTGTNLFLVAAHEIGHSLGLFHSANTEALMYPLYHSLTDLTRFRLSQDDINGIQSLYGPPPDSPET
Description: as §1, §2, §3
It should be appreciated that the assay buffer used with MMP-3CD was 50 mM of N-morpholinoethane sulfonate (“MES”) at pH 6.0 rather than the HEPES buffer at pH 7.0 described above.

[3] = molecular target: T1, MMP-7FL (full-length matrilysin) (Homo sapiens, UniProt P09237); assay: Thiopeptolide hydrolysis assay, MMP-7FL; details: Table 1; thiopeptolide substrate, HEPES pH 7.0; read-out: MMP07 (FL) IC50
T1 sequence (P09237 95-267): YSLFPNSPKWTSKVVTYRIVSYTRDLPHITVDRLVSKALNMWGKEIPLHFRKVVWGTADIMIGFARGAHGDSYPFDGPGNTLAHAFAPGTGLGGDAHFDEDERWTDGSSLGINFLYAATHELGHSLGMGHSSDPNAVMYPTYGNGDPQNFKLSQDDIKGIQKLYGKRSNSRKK
Excerpt: as §1, §2, §3

[4] = Table 1, read-out: MMP13 (CD) IC50
[5] = Table 2, read-out: IC50 (μM) Versus Certain MMPs: MMP13 (CD)

Row | Structure (SMILES) | IC50 [1, 5] [µM] | also measured
1 | CN1C(=O)N(Cc2ccccc2)S(=O)(=O)c2cc(C(=O)OCc3ccccc3)ccc21 [Example 1, 2-Benzyl-4-methyl-1,1,3-trioxo-1,2,3,4-tetrahydro-1l^6-benzo[1,2,4]thiadiazine-7-carboxylic Acid Benzyl Ester] |  | IC50 [1, 4]: 0.2 µM; IC50 ([2]; Table 1, read-out: MMP03 (CD) IC50): 85 µM; IC50 [3]: 44 µM
2 | CN1C(=O)N(Cc2ccccc2)S(=O)(=O)c2cc(C(=O)NCc3ccccc3)ccc21 [Example 2, 2-Benzyl-4-methyl-1,1,3-trioxo-1,2,3,4-tetrahydro-1l^6-benzo[1,2,4]thiadiazine-7-carboxylic Acid Benzylamide] |  | IC50 [1, 4]: 0.88 µM
3 | CN1C(=O)N(Cc2ccccc2)S(=O)(=O)c2cc(C(=O)NCc3ccncc3)ccc21 [Example 3, 2-Benzyl-4-methyl-1,1,3-trioxo-1,2,3,4-tetrahydro-1l^6-benzo[1,2,4]thiadiazine-7-carboxylic acid (pyridin-4-ylmethyl)-amide] |  | IC50 [1, 4]: 0.51 µM
4 | CN1C(=O)N(Cc2ccccc2)S(=O)(=O)c2cc(C(=O)NCc3ccc4[nH]ccc4c3)ccc21 [Example 4, 2-Benzyl-4-methyl-1,1,3-trioxo-1,2,3,4-tetrahydro-1l^6-benzo[1,2,4]thiadiazine-7-carboxylic acid (1H-indol-5-ylmethyl)-amide] | > 30 | 
5 | CN1C(=O)N(Cc2ccccc2)S(=O)(=O)c2cc(C(=O)NCc3ccc(CCS(=O)(=O)NC(C)(C)C)cc3)ccc21 [Example 6, 2-Benzyl-4-methyl-1,1,3-trioxo-1,2,3,4-tetrahydro-1l^6-benzo[1,2,4]thiadiazine-7-carboxylic acid 4-(2-tert-butylsulfamoyl-ethyl)-benzylamide] | > 30 | 
6 | CN1C(=O)N(Cc2ccccc2)S(=O)(=O)c2cc(C(=O)NCc3cc4ccccc4[nH]3)ccc21 [Example 7, 2-Benzyl-4-methyl-1,1,3-trioxo-1,2,3,4-tetrahydro-1l^6-benzo[1,2,4]thiadiazine-7-carboxylic acid (1H-indol-2-ylmethyl)-amide] | > 30 | 
7 | CN1C(=O)N(Cc2ccccc2)S(=O)(=O)c2cc(C(=O)NCc3ccc(CCS(N)(=O)=O)cc3)ccc21 [Example 8, 2-Benzyl-4-methyl-1,1,3-trioxo-1,2,3,4-tetrahydro-1l^6-benzo[1,2,4]thiadiazine-7-carboxylic acid 4-(2-sulfamoyl-ethyl)-benzylamide] | 63 | 
8 | CN1C(=O)N(Cc2ccc(C(=O)OC(C)(C)C)cc2)S(=O)(=O)c2cc(C(=O)NCc3ccccc3)ccc21 [Example 10, 4-(7-Benzylcarbamoyl-4-methyl-1,1,3-trioxo-3,4-dihydro-1H-1l^6-benzo[1,2,4]thiadiazin-2-ylmethyl)-benzoic Acid Tert-Butyl Ester] | > 30 | 
9 | COc1ccc(CNC(=O)c2ccc3c(c2)S(=O)(=O)N(Cc2ccc(C(=O)OC(C)(C)C)cc2)C(=O)N3C)cc1 [Example 12, 4-[7-(4-Methoxy-benzylcarbamoyl)-4-methyl-1,1,3-trioxo-3,4-dihydro-1H-1l^6-benzo[1,2,4]thiadiazin-2-ylmethyl]-Benzoic Acid Tert-Butyl Ester] | > 30 | 
10 | COc1ccc(CNC(=O)c2ccc3c(c2)S(=O)(=O)N(Cc2ccc(S(C)(=O)=O)cc2)C(=O)N3C)cc1 [Example 15, 2-(4-Methanesulfonyl-benzyl)-4-methyl-1,1,3-trioxo-1,2,3,4-tetrahydro-1l^6-benzo[1,2,4]thiadiazine-7-carboxylic acid 4-methoxy-benzylamide] | 11 | 
11 | COc1ccc(CNC(=O)c2ccc3c(c2)S(=O)(=O)N(Cc2ccc([N+](=O)[O-])cc2)C(=O)N3C)cc1 [Example 17, 4-Methyl-2-(4-nitro-benzyl)-1,1,3-trioxo-1,2,3,4-tetrahydro-1l^6-benzo[1,2,4]thiadiazine-7-carboxylic acid 4-methoxy-benzylamide] | 0.615 | IC50 ([2]; Table 2, read-out: IC50 (μM) Versus Certain MMPs: MMP03 (CD)): 16 µM
12 | COc1ccc(CNC(=O)c2ccc3c(c2)S(=O)(=O)N(Cc2ccc(-c4ccccc4)cc2)C(=O)N3C)cc1 [Example 23, 2-Biphenyl-4-ylmethyl-4-methyl-1,1,3-trioxo-1,2,3,4-tetrahydro-1l^6-benzo[1,2,4]thiadiazine-7-carboxylic acid 4-methoxy-benzylamide] | > 30 | 
13 | COc1ccc(CNC(=O)c2ccc3c(c2)S(=O)(=O)N(Cc2ccc(C(=O)OCCN(C)C)cc2)C(=O)N3C)cc1 [Example 26, 4-[7-(4-Methoxy-benzylcarbamoyl)-4-methyl-1,1,3-trioxo-3,4-dihydro-1H-1l^6-benzo[1,2,4]thiadiazin-2-ylmethyl]-benzoic acid 2-dimethylamino-ethyl Ester Hydrochloride] | 2.2 | 
14 | COc1ccc(CNC(=O)c2ccc3c(c2)S(=O)(=O)N(Cc2ccc(N)cc2)C(=O)N3C)cc1 [Example 33, 2-(4-Amino-benzyl)-4-methyl-1,1,3-trioxo-1,2,3,4-tetrahydro-1l^6-benzo[1,2,4]thiadiazine-7-carboxylic acid 4-methoxy-benzylamide] | 8.8 | 
15 | CCC#CCN1C(=O)N(C)c2ccc(C(=O)NCc3ccc(OC)cc3)cc2S1(=O)=O [Example 35, 4-methyl-1,1,3-trioxo-2-pent-2-ynyl-1,2,3,4-tetrahydro-1l^6-benzo[1,2,4]thiadiazine-7-carboxylic Acid 4-methoxy-benzylamide] | 1.4 | 
16 | COc1ccc(CNC(=O)c2ccc3c(c2)S(=O)(=O)N(C(C)c2ccccc2)C(=O)N3C)cc1 (centres unmarked) [Example 36, 4-Methyl-1,1,3-trioxo-2-(1-phenyl-ethyl)-1,2,3,4-tetrahydro-1l^6-benzo[1,2,4]thiadiazine-7-carboxylic Acid 4-methoxy-benzylamide] | 6.3 | 
17 | COc1ccc(CNC(=O)c2ccc3c(c2)S(=O)(=O)N(CCCCCC#N)C(=O)N3C)cc1 [Example 37, 2-(5-Cyano-pentyl)-4-methyl-1,1,3-trioxo-1,2,3,4.tetrahydro-1l^6-benzo[1,2,4]thiadiazine-7-carboxylic Acid 4-methoxy-benzylamide] | 3.2 | 
18 | C/C=C/CN1C(=O)N(C)c2ccc(C(=O)NCc3ccc(OC)cc3)cc2S1(=O)=O [Example 38, 2-(E)-But-2-enyl-4-methyl-1,1,3-trioxo-1,2,3,4-tetrahydro-1l^6-benzo[1,2,4]thiadiazine-7-carboxylic Acid 4-methoxy-benzylamide] | 2.2 | 
19 | CC/C=C/CN1C(=O)N(C)c2ccc(C(=O)NCc3ccc(OC)cc3)cc2S1(=O)=O [Example 39, 4-Methyl-1,1,3-trioxo-2-(E)-pent-2-enyl-1,2,3,4-tetrahydro-1l^6-benzo[1,2,4]thiadiazine-7-carboxylic Acid 4-methoxy-benzylamide] | 1.5 | 
20 | C=C(C)CN1C(=O)N(C)c2ccc(C(=O)NCc3ccc(OC)cc3)cc2S1(=O)=O [Example 40, 4-Methyl-2-(2-methyl-allyl)-1,1,3-trioxo-1,2,3,4-tetrahydro-1l^6-benzo[1,2,4]thiadiazine-7-carboxylic Acid 4-methoxy-benzylamide] | 1.7 | 
21 | COc1ccc(CNC(=O)c2ccc3c(c2)S(=O)(=O)N(CC=C(C)C)C(=O)N3C)cc1 [Example 41, 4-Methyl-2-(3-methyl-but-2-enyl)-1,1,3-trioxo-1,2,3,4-tetrahydro-1l^6-benzo[1,2,4]thiadiazine-7-carboxylic Acid 4-methoxy-benzylamide] | 1.9 | 
22 | COc1ccc(CNC(=O)c2ccc3c(c2)S(=O)(=O)N(CCS(=O)(=O)c2ccc(C)cc2)C(=O)N3C)cc1 [Example 42, 4-Methyl-1,1,3-trioxo-2-[2-(toluene-4-sulfonyl)-ethyl]-1,2,3,4-tetrahydro-1l^6-benzo[1,2,4]thiadiazine-7-carboxylic Acid 4-methoxy-benzylamide] | 100 | 
23 | COc1ccc(CNC(=O)c2ccc3c(c2)S(=O)(=O)N(CCNC(=O)c2ccccc2)C(=O)N3C)cc1 [Example 44, 4-Methyl-1,1,3-trioxo-2-{2-[(1-phenyl-methanoyl)-amino]-ethyl}-1,2,3,4-tetrahydro-1l^6-benzo[1,2,4]thiadiazine-7-carboxylic Acid 4-methoxy-benzylamide] | 86 | 
24 | COc1ccc(CNC(=O)c2ccc3c(c2)S(=O)(=O)N(Cc2ccc4nonc4c2)C(=O)N3C)cc1 [Example 45, 2-Benzo[1,2,5]oxadiazol-5-ylmethyl-4-methyl-1,1,3-trioxo-1,2,3,4-tetrahydro-1l^6-benzo[1,2,4]thiadiazine-7-carboxylic Acid 4-methoxy-benzylamide] | 0.7 | 
25 | COC(=O)Nc1cc(CN2C(=O)N(C)c3ccc(C(=O)NCc4ccc(OC)cc4)cc3S2(=O)=O)on1 [Example 46, {5-[7-(4-Methoxy-benzylcarbamoyl)-4-methyl-1,1,3-trioxo-3,4-dihydro-1H-1l^6-benzo[1,2,4]thiadiazin-2-ylmethyl]-isoxazol-3-yl}-carbamic Acid Methyl Ester] | 1.7 | 
26 | COc1ccc(CNC(=O)c2ccc3c(c2)S(=O)(=O)N(Cc2cscn2)C(=O)N3C)cc1 [Example 47, 4-Methyl-1,1,3-trioxo-2-thiazol-4-ylmethyl-1,2,3,4-tetrahydro-1l^6-benzo[1,2,4]thiadiazine-7-carboxylic Acid 4-methoxy-benzylamide] | 13 | 
